Measurements: US20220315771A1, “REVERSIBLE CULTURAL RELIC PROTECTION MATERIAL WITH FUNCTION OF INHIBITING GROWTH OF BACTERIA AND MOLD” (SHANGHAI UNIVERSITY, priority 2019, published 2022)

Tested on: E. coli
Experiment: Bacterial resistance test: solid 1 mm cube placed in E. coli solution, growth followed by OD600
Settings: E. coli solution with starting OD600 0.45

Measured: OD600 value

Procedure: B) The block was putted into an E. coli solution with an OD600 value of 0.45, and the growth of the bacteria was observed.
The antibacterial properties of bacterial in the experimental groups 1 to 5 and the control group were tested, and the OD600 values represent the growth of bacterial cells.

CCc1occc(=O)c1O [experimental group 3, ethyl maltol]
lowest: at 12 hours, control group 0.55 | at 24 hours, control group 0.48 | at 2 days, control group 0.61 | at 3 days, control group 0.47
